Results on 20 compounds are retold here after PubChem BioAssay (NCI).

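Briefly, cells in 96-well plates were exposed to five compound concentrations for 48 h, and endpoints were estimated by linear interpolation. At the GI50, growth is halved. TGI denotes the concentration required for complete inhibition of growth.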 Where only a bound is given, the exact number is not on record here.

Holding throughout (test): NCI anticancer screen, dose series, 48 h
Assay [1] has as its system A498 renal.
Assay [2] deals with HS 578T breast.
The subject of assay [3] is HT29 colon.
In assay [4] the test system is IGROV1 ovarian.
Assay [5] has as its system MALME-3M melanoma.
The subject of assay [6] is MOLT-4 leukemia.
The test system of assay [7] is OVCAR-5 ovarian.
For assay [8], the system named is SK-MEL-2 melanoma.
Assay [9] deals with SR leukemia.
Assay [10] deals with UACC-62 melanoma.

Take `CCc1c2c(cc3c1CC1(C3)Cc3cc4c(c(C(=O)OC)c3C1)CCCC4)CCCC2` (configuration not stated): the TGI in assay [1] is greater than 100 µM; in assay [2] it was 46.6 µM; in assay [3], greater than 100 µM; in [4], greater than 100 µM; in assay [5] it was greater than 100 µM; in [6] it was greater than 100 µM. The TGI is greater than 100 µM in assay [7], greater than 100 µM in assay [8], greater than 100 µM in [9] and 35.1 µM in [10].
As for `CCOC(=O)c1cc(-n2nnc3ccccc32)cn1C`, the TGI in [1], in [2], in assay [3], in [4], in assay [5] and in [6] was greater than 10 µM in each case. The TGI in assay [7], in [8], in [9] and in assay [10] was greater than 10 µM in each case.
As to `CN(CC(=O)O)c1ncc2c(n1)C=CCC2`, the TGI in assay [1], in assay [2], in assay [3], in assay [4], in assay [5] and in assay [6] was greater than 100 µM in each case. Further, the TGI in assay [7], in assay [8], in assay [9] and in assay [10] was greater than 100 µM in each case.
For the compound `CCOC(=O)/C=C(\C(=O)OCC)n1ccc(=O)n(Cc2cnnn2CCCCOC(C)=O)c1=O`, the TGI in assay [1] is 37.6 µM; in assay [2] it was 58.9 µM; in assay [3], 23.5 µM; in assay [4], 28.4 µM; in assay [5] it was 3.84 µM; in assay [6] it was 5.19 µM. Further, the TGI worked out at 29.4 µM in [7], 36.3 µM in assay [8], 5.49 µM in assay [9] and 23.4 µM in assay [10]. Moreover, the values for the GI50 in [6] and in assay [9] were 2.23 µM and 1.68 µM, respectively.
Turning to `CCCNC(=S)N/N=C(\C)c1ccc(S(=O)(=O)N(C)c2ccccc2)cc1`, the TGI in [1] was greater than 100 µM; in assay [2] it was 24.4 µM; in assay [3] it was greater than 100 µM; in assay [4], greater than 66.1 µM; in assay [5], greater than 100 µM; in assay [6] it was greater than 100 µM. In addition, the TGI in assay [7], in assay [8], in assay [9] and in assay [10] was greater than 100 µM throughout.
For the compound `COc1cccc(/C=N/NC(=O)CSCC(=O)N/N=C/c2cccc(OC)c2OC)c1OC`, the TGI in assay [1], in assay [2], in assay [3], in [4], in [5] and in assay [6] was greater than 100 µM each time. Also, the TGI in assay [7], in [8], in [9] and in [10] was greater than 100 µM in each case.
In the case of `CSC1(C)C(=O)Nc2c(OCc3ccccc3)cc([N+](=O)[O-])cc21` (configuration not stated), the TGI was greater than 100 µM in assay [1]; 32.6 µM in assay [2]; greater than 100 µM in assay [3]; greater than 100 µM in [4]; greater than 100 µM in assay [5]; greater than 100 µM in assay [6]. In addition, the TGI in assay [7], in assay [8], in [9] and in assay [10] was greater than 100 µM each time.
Take `Cc1ccc(C(=O)Nc2ccc(CP(=O)(O)O)cc2)cc1NC(=O)c1cccc(N)c1`: the TGI in [1], in assay [2], in [3], in assay [4], in [5] and in [6] was greater than 100 µM throughout. Besides, the TGI in [7], in assay [8], in [9] and in assay [10] was greater than 100 µM in each case.
Take `O=C1c2ccccc2C(=O)N1CCSCC(CO)SCCN1C(=O)c2ccccc2C1=O` (configuration not stated): the TGI in assay [1], in assay [2], in [3], in assay [4], in assay [5] and in assay [6] was greater than 100 µM in each case. In addition, the TGI in [7], in [8], in [9] and in [10] was greater than 100 µM throughout.
For `COc1ccccc1Cc1ccc(C2C=CC3(CC(=O)C=C3C)C(=O)C2)o1` (configuration not stated), the TGI was 47.7 µM in [1]; 68.7 µM in assay [2]; greater than 100 µM in assay [3]; greater than 100 µM in [4]; 47.5 µM in assay [5]; 34.1 µM in assay [6]. In addition, the TGI is greater than 100 µM in [7], 30.8 µM in assay [8], 43.9 µM in assay [9] and 31.8 µM in assay [10].
Consider `NNC(=O)CC(=O)Nc1cccc(Cl)c1`, for which the TGI in assay [1], in assay [2], in assay [3], in assay [4], in assay [5] and in [6] was greater than 100 µM throughout. Besides, the TGI in assay [7], in assay [8], in assay [9] and in [10] was greater than 100 µM throughout.
With `NC(N)=NS(=O)(=O)c1ccc(N/N=C2/CCOC2=O)cc1`, the TGI in assay [1], in [2], in assay [3], in [4], in assay [5] and in assay [6] was greater than 100 µM throughout. The TGI in assay [7], in assay [8], in [9] and in assay [10] was greater than 100 µM in each case.
Take `CC(=O)c1[nH]c(NC(C)C)c(C(=S)Nc2ccccc2)c1N`: the TGI in assay [1] is 82.9 µM; in [2], greater than 100 µM; in assay [3], greater than 100 µM; in assay [4], greater than 100 µM; in assay [5], 89.2 µM; in assay [6], greater than 100 µM. Also, the TGI in [7] is greater than 100 µM; in [8] it was 33 µM; in [9], 76.8 µM; in assay [10], 53.8 µM.
Take `COC(=O)c1c(C(=O)OC)c2ccccn2c1-c1cc(OC)c(Br)c(=O)o1`: the TGI in assay [1], in assay [2], in assay [3], in assay [4], in [5] and in [6] was greater than 100 µM throughout. Besides, the TGI in assay [7], in assay [8], in [9] and in assay [10] was greater than 100 µM throughout.
In the case of `COc1cc2c(c(OC)c1OC)C(=O)[C@@H]1[C@H]2N1C(=O)NCCCl`, the TGI in assay [1], in assay [2], in assay [3], in [4], in [5] and in assay [6] was greater than 100 µM each time. Moreover, the TGI in [7], in assay [8], in assay [9] and in assay [10] was greater than 100 µM throughout.
In the case of `CC(O)C1(CNc2cc(Cl)nc(N)n2)CCCCC1` (configuration not stated), the TGI in [1], in assay [2], in [3], in assay [4], in assay [5] and in assay [6] was greater than 100 µM in each case. The TGI in assay [7], in assay [8], in assay [9] and in assay [10] was greater than 100 µM each time.
Turning to `CC(Oc1ccccc1Cl)C(=O)NN1C(=O)CC(=O)N(c2ccccc2)C1=S` (configuration not stated), the TGI in [1], in assay [2], in [3], in assay [4], in assay [5] and in assay [6] was greater than 100 µM in each case. Moreover, the TGI in assay [7], in assay [8], in assay [9] and in assay [10] was greater than 100 µM each time.
With `COC(=O)C1CCN(C(=O)OC(C)(C)C)CC1`, the TGI in assay [1], in assay [2], in assay [3], in [4], in [5] and in assay [6] was greater than 100 µM in each case. Further, the TGI in [7], in assay [8], in assay [9] and in assay [10] was greater than 100 µM throughout.
Turning to `COc1ccc2c3c(Nc4cccc(/C(C)=N\O)c4)[nH]c4ccccc4c-3c(N=O)c2c1`, the GI50 was 78.1 µM in assay [1]; 94.8 µM in assay [2]; 18.3 µM in assay [3]; 26.1 µM in [4]; 34.7 µM in assay [5]; 7 µM in assay [6]. The GI50 in assay [7] was 26.5 µM; in [8], 19.7 µM; in assay [9], 20.4 µM; in assay [10], 43.9 µM. Moreover, the TGI was greater than 100 µM in assay [1]; greater than 100 µM in [2]; greater than 100 µM in assay [3]; 84.5 µM in assay [4]; 95.5 µM in [5]; 62.2 µM in assay [6]. Further, the TGI in assay [7] was 96.9 µM; in assay [8] it was 67.7 µM; in assay [9] it was greater than 100 µM; in assay [10] it was greater than 100 µM.
Consider `COc1ccc([N+](=O)[O-])c2c(NCCCN(C)C)ccnc12`, for which the TGI is 5.18 µM in assay [1]; 34.6 µM in [2]; greater than 32.4 µM in assay [3]; 4.85 µM in [4]; 5.62 µM in assay [5]; 8.12 µM in assay [6]. Moreover, the TGI came out at 42.4 µM in assay [7], 4.48 µM in assay [8], 1.97 µM in [9] and 11.4 µM in assay [10].
